# Experimental data published in US8383581B2, “Short-chain peptides as parathyroid hormone (PTH) receptor agonist” (Cadila Healthcare Limited, priority 2009, dated 2013).
# Where a SMILES comes first, the peptide text is derived from it. [ ]: non-standard residue; d: D form. ξ: configuration not given here. ξBip(2'-Et-4'-OMe) = CCc1cc(OC)ccc1-c1ccc(CC(N)C(=O)O)cc1; Arg(NO2) = N=C(NCCC[C@H](N)C(=O)O)N[N+](=O)[O-]; ξαMePhe(2,6-F2) = CC(N)(Cc1c(F)cccc1F)C(=O)O; hArg = N=C(N)NCCCC[C@H](N)C(=O)O; hCit = NC(=O)NCCCC[C@H](N)C(=O)O; ξhhPhe = NC(CCCc1ccccc1)C(=O)O; Nle = CCCC[C@H](N)C(=O)O; Ac5c = NC1(C(=O)O)CCCC1; Ac3c = NC1(C(=O)O)CC1; Aib = CC(C)(N)C(=O)O
# System: ovariectomised (OVX) rats
# Assay: In vivo anti-osteoporosis activity testing in OVX rat model (serum calcium, phosphate, bone parameters)
# Set-up: species or system Female Wistar Rats
# Conditions: po
# Description: c) In Vivo Anti-Osteoporosis Activity Testing in OVX Rat Model: The ovariectomised (OVX) rats were used to study anti-osteoporosis activity of test compounds (short-chain peptides) in vivo. The OVX rats develop osteopenia due to ovarian hormone deficiency. Osteopenia can be detected as early as 14 days post OVX, increase for the next 100 days and then stabilised (Wronski T. J., et al., Calcif. Tissue Int., 43(3), 1988, 179-183). Detailed Study Protocol to Evaluate the Effects of Anabolic Therapy on Bone Markers and Histomorphometry in OVX Animals: 10 to 11 weeks old Female Wistar Rats (150-200 g) were used. The animals were kept in individually ventilated cages in a room with controlled temperature (23°±3° C.), lighting (12:12 h light-dark cycle) and relative humidity (55±10%). Animals had free access to standard rat chow and water. Protocol for use of animals for conducting this study has been reviewed and approved by Institutional Animal Ethics Committee (IAEC). The animals were marked with picric acid for identification and acclimatized to experimental room conditions for 2 days prior to initiation of the study. For the induction of osteoporosis, rats were bilaterally ovariectomised under anesthesia. For Ovariectomy, Incision was made on dorsa-lateral side near lumbar region of animal. After that, ovary was excised and the veins were tied with ligature before removing ovary to prevent blood loss. Then incision was sutured back with ligature. After Bilateral ovariectomy, animals were allowed to rest for 4 weeks. They were then divided into different groups (n=9) based on their body weight. The groups consisted of a no treatment control, PTH as standard and one or two groups of test compounds (short-chain peptides). The treatment was given for the duration of 6 weeks. At the last day of treatment animals were kept overnight in metabolic cages under fasting for the collection of Urine. Next day, blood was collected after 24 hours of last dosing and animals were sacrificed. Changes in biochemical parameters and bone turnover parameters (Increase in serum Calcium and decrease in Phosphate levels, Acid Phosphatase and TRAP) were evaluated in the urine and serum. After sacrificing, intact femur and tibial bones are removed and cleaned from adherent tissues, muscles and tendons; weighed and collected in formal saline (10% formaldehyde solution). Lumbar vertebra (L5) was excised, carefully cleaned and collected in formal saline. Femur, tibia and Lumbar vertebra-5 (L5) were later processed for histomorphometric evaluation (Zhang L., et al., Tohoku J Exp Med., 1998, 186(2), 131-41; Tanizawa T., et al., Toxicol Lett., 1998, 102, 399-403).
compound,measurement,setting,value
CCCC[C@H](NC(=O)[C@H](CC(C)C)NC(=O)[C@H](CCC(N)=O)NC(=O)[C@@H](NC(=O)[C@H](CCC(=O)O)NC(=O)C(C)(C)NC(=O)[C@@H](NC(=O)C1(N)CC1)C(C)C)[C@@H](C)CC)C(=O)N[C@@H](Cc1c[nH]cn1)C(=O)N[C@@H](CCC(N)=O)C(=O)N[C@@H](CCCCNC(=N)N)C(=O)N[C@@H](C)C(=O)N[C@@H](CCCCN)C(=O)NC(Cc1ccc(-c2ccc(OC)cc2CC)cc1)C(N)=O (stereo partly drawn) [Seq. ID. 649] (H-[Ac3c]V[Aib]EIQL[Nle]HQ[hArg]AK[ξBip(2'-Et-4'-OMe)]-NH2),% decrease in serum PO4 Levels (mg/dl) vs control,2 mg/kg,82%
same,% increase in serum Ca^2+ Levels (mg/dl) vs control,2 mg/kg,86%
CCCC[C@H](NC(=O)[C@H](CC(C)C)NC(=O)[C@H](CCC(N)=O)NC(=O)[C@@H](NC(=O)[C@H](CCC(=O)O)NC(=O)C(C)(C)NC(=O)[C@@H](NC(=O)C1(N)CCCC1)C(C)C)[C@@H](C)CC)C(=O)N[C@@H](Cc1c[nH]cn1)C(=O)N[C@@H](CCC(N)=O)C(=O)N[C@@H](CCCCNC(=N)N)C(=O)N[C@@H](C)C(=O)N[C@@H](CCCNC(=N)N[N+](=O)[O-])C(=O)NC(Cc1ccc(-c2ccc(OC)cc2CC)cc1)C(=O)NC(CCCc1ccccc1)C(N)=O (stereo partly drawn) [Seq. ID. 686] (H-[Ac5c]V[Aib]EIQL[Nle]HQ[hArg]A[Arg(NO2)][ξBip(2'-Et-4'-OMe)][ξhhPhe]-NH2),% decrease in serum PO4 Levels (mg/dl) vs control,3 mg/kg,80%
same,% increase in serum Ca^2+ Levels (mg/dl) vs control,3 mg/kg,84%
CCCC[C@H](NC(=O)[C@H](CC(C)C)NC(=O)[C@H](CCC(N)=O)NC(=O)[C@@H](NC(=O)[C@H](CCC(=O)O)NC(=O)C(C)(C)NC(=O)[C@@H](NC(=O)C(C)(C)N)C(C)C)[C@@H](C)CC)C(=O)N[C@@H](Cc1c[nH]cn1)C(=O)N[C@@H](CCC(N)=O)C(=O)N[C@@H](CCCCNC(=N)N)C(=O)NC(C)(C)C(=O)NC(C)(C)C(=O)NC(Cc1ccc(-c2ccc(OC)cc2CC)cc1)C(=O)NC(CCCc1ccccc1)C(N)=O (stereo partly drawn) [Seq. ID. 742] (H-[Aib]V[Aib]EIQL[Nle]HQ[hArg][Aib][Aib][ξBip(2'-Et-4'-OMe)][ξhhPhe]-NH2),% decrease in serum PO4 Levels (mg/dl) vs control,0.1 mg/kg,92%
same,% increase in serum Ca^2+ Levels (mg/dl) vs control,0.1 mg/kg,89%
CCCC[C@H](NC(=O)[C@H](CC(C)C)NC(=O)[C@H](CCC(N)=O)NC(=O)[C@@H](NC(=O)[C@H](CCC(=O)O)NC(=O)C(C)(C)NC(=O)[C@@H](NC(=O)C1(N)CCCC1)C(C)C)[C@@H](C)CC)C(=O)N[C@@H](Cc1c[nH]cn1)C(=O)N[C@@H](CCC(N)=O)C(=O)N[C@@H](CCCCNC(N)=O)C(=O)N[C@@H](C)C(=O)N[C@@H](CCCNC(=N)N)C(=O)NC(Cc1ccc(-c2ccc(OC)cc2CC)cc1)C(=O)NC(CCCc1ccccc1)C(N)=O (stereo partly drawn) [Seq. ID. 779] (H-[Ac5c]V[Aib]EIQL[Nle]HQ[hCit]AR[ξBip(2'-Et-4'-OMe)][ξhhPhe]-NH2),% decrease in serum PO4 Levels (mg/dl) vs control,1 mg/kg,56%
same,% increase in serum Ca^2+ Levels (mg/dl) vs control,1 mg/kg,67%
"CCCC[C@H](NC(=O)[C@H](CC(C)C)NC(=O)[C@H](CCC(N)=O)NC(=O)[C@@H](NC(=O)[C@H](CCC(=O)O)NC(=O)C(C)(C)NC(=O)[C@@H](NC(=O)C(C)(C)N)C(C)C)[C@@H](C)CC)C(=O)N[C@@H](Cc1c[nH]cn1)C(=O)N[C@@H](CCC(N)=O)C(=O)NC(C)(Cc1c(F)cccc1F)C(=O)N[C@@H](C)C(=O)NC(C)(C)C(=O)NC(Cc1ccc(-c2ccc(OC)cc2CC)cc1)C(=O)NC(CCCc1ccccc1)C(N)=O (stereo partly drawn) [Seq. ID. 798] (H-[Aib]V[Aib]EIQL[Nle]HQ[ξαMePhe(2,6-F2)]A[Aib][ξBip(2'-Et-4'-OMe)][ξhhPhe]-NH2)",% decrease in serum PO4 Levels (mg/dl) vs control,5 mg/kg,82%
same,% increase in serum Ca^2+ Levels (mg/dl) vs control,5 mg/kg,88%
"CCCC[C@H](NC(=O)[C@H](CC(C)C)NC(=O)[C@H](CCC(N)=O)NC(=O)[C@@H](NC(=O)[C@H](CCC(=O)O)NC(=O)C(C)(C)NC(=O)[C@@H](NC(=O)C1(N)CCCC1)C(C)C)[C@@H](C)CC)C(=O)N[C@@H](Cc1c[nH]cn1)C(=O)N[C@@H](CCC(N)=O)C(=O)NC(C)(Cc1c(F)cccc1F)C(=O)N[C@@H](C)C(=O)NC(C)(Cc1c(F)cccc1F)C(=O)NC(Cc1ccc(-c2ccc(OC)cc2CC)cc1)C(=O)NC(CCCc1ccccc1)C(N)=O (stereo partly drawn) [Seq. ID. 801] (H-[Ac5c]V[Aib]EIQL[Nle]HQ[ξαMePhe(2,6-F2)]A[ξαMePhe(2,6-F2)][ξBip(2'-Et-4'-OMe)][ξhhPhe]-NH2)",% decrease in serum PO4 Levels (mg/dl) vs control,3 mg/kg,65%
same,% increase in serum Ca^2+ Levels (mg/dl) vs control,3 mg/kg,59%
